Legend:
Assay type in all cases: in vivo
[1] = tested on: Diamond back moth (Plutella xylostella); test: Diamond back moth leaf-dip test on cabbage leaves; conditions: 72 h, read-out: mortality in comparison with untreated controls
Procedure: The active compound was dissolved at the desired concentration in a mixture of 1:1 (vol:vol) distilled water: acetone. Surfactant (Kinetic HV) was added at a rate of 0.01% (vol/vol). The test solution was prepared on the day of use.
Leaves of cabbage were dipped in test solution and air-dried. Treated leaves were placed in petri dishes lined with moist filter paper and inoculated with ten 3rd instar larvae. Mortality was recorded 72 hours after treatment. Feeding damages were also recorded using a scale of 0-100%.

[2] = tested on: Yellow fever mosquito (Aedes aegypti); test: whole plant or invertebrate; conditions: 48 h, larval mortality, 2 days, read-out: mortality in comparison with untreated controls
Procedure: For evaluating control of yellow fever mosquito (Aedes aegypti) the test unit consisted of 96-well-microtiter plates containing 200µl of tap water per well and 5-15 freshly hatched A. aegypti larvae.
The active compounds were formulated using a solution containing 75% (v/v) water and 25% (v/v) DMSO. Different concentrations of formulated compounds or mixtures were sprayed onto the insect diet at 2.5µl, using a custom-built micro atomizer, at two replications.
After application, microtiter plates were incubated at 28±1 °C, 80±5 % RH for 2 days. Larval mortality was then visually assessed.

[3] = tested on: Southern armyworm (Spodoptera eridania), 2nd instar larvae; test: Southern armyworm foliar spray test on lima bean plants; conditions: 96 h, 4 days after treatment, read-out: mortality in comparison with untreated controls
Procedure: The active compounds were formulated by a Tecan liquid handler in 100% cyclohexanone as a 10,000-ppm solution supplied in tubes. The 10,000-ppm solution was serially diluted in 100% cyclohexanone to make interim solutions. These served as stock solutions for which final dilutions were made by the Tecan in 50% acetone:50% water (v/v) into 10 or 20ml glass vials. A nonionic surfactant (Kinetic®) was included in the solution at a volume of 0.01% (v/v). The vials were then inserted into an automated electrostatic sprayer equipped with an atomizing nozzle for application to plants/insects. Lima bean plants (variety Sieva) were grown 2 plants to a pot and selected for treatment at the 1st true leaf stage. Test solutions were sprayed onto the foliage by an automated electrostatic plant sprayer equipped with an atomizing spray nozzle. The plants were dried in the sprayer fume hood and then removed from the sprayer. Each pot was placed into perforated plastic bags with a zip closure. Ten to 11 armyworm larvae were placed into the bag and the bags zipped closed. Test plants were maintained in a growth room at about 25°C and about 20-40% relative humidity for 4 days, avoiding direct exposure to fluorescent light (14:10 light:dark photoperiod) to prevent trapping of heat inside the bags. Mortality and reduced feeding were assessed 4 days after treatment, compared to untreated control plants.

[4] = tested on: Tobacco budworm (Heliothis virescens); test: Tobacco budworm test, insect diet with eggs in 96-well microtiter plates; conditions: 120 h, egg and larval mortality, 5 days, read-out: mortality in comparison with untreated controls
Procedure: For evaluating control of tobacco budworm (Heliothis virescens) the test unit consisted of 96-well-microtiter plates containing an insect diet and 15-25 H. virescens eggs.
The compounds were formulated using a solution containing 75% v/v water and 25% v/v DMSO. Different concentrations of formulated compounds were sprayed onto the insect diet at 10 µl using a custom-built micro atomizer, at two replications.
After application, microtiter plates were incubated at about 28±1°C and about 80±5 % relative humidity for 5 days. Egg and larval mortality was then visually assessed.

[5] = tested on: Boll weevil (Anthonomus grandis); test: Boll weevil test, insect diet with eggs in 96-well microtiter plates; conditions: 120 h, egg and larval mortality, 5 days, read-out: mortality in comparison with untreated controls
Procedure: For evaluating control of boll weevil (Anthonomus grandis) the test unit consisted of 96-well-microtiter plates containing an insect diet and 5-10 A. grandis eggs.
The compounds were formulated using a solution containing 75% v/v water and 25% v/v DMSO. Different concentrations of formulated compounds were sprayed onto the insect diet at 5 µl, using a custom-built micro atomizer, at two replications.
After application, microtiter plates were incubated at about 25±1°C and about 75±5 % relative humidity for 5 days. Egg and larval mortality was then visually assessed.

[6] = tested on: Green Peach Aphid (Myzus persicae); test: Green peach aphid systemic test, artificial diet in 96-well microtiter plates; conditions: 72 h, adult aphids, 3 days, read-out: mortality in comparison with untreated controls
Source text: For evaluating control of green peach aphid (Myzus persicae) through systemic means the test unit consisted of 96-well-microtiter plates containing liquid artificial diet under an artificial mem brane.
The compounds were formulated using a solution containing 75% v/v water and 25% v/v DMSO. Different concentrations of formulated compounds were pipetted into the aphid diet, using a custom built pipetter, at two replications.
After application, 5-8 adult aphids were placed on the artificial membrane inside the microtiter plate wells. The aphids were then allowed to suck on the treated aphid diet and incubated at about 23±1°C and about 50±5 % relative humidity for 3 days. Aphid mortality and fecundity was then visually assessed.

CC(NC(=O)c1cc(Br)cc(C(F)(F)F)c1)c1ocnc1-c1ncc(OC(F)F)cn1 (centres unmarked) [I-1, 3-bromo-N-[1-[4-[5-(difluoromethoxy)pyrimidin-2-yl]oxazol-5-yl]ethyl]-5-(trifluoromethyl)benzamide]
≥ 75%: mortality at 300 ppm [1] | mortality at 2500 ppm [2] | mortality at 300 ppm [3] | mortality at 2500 ppm [4] | mortality at 2500 ppm [5]

CC(NC(=O)c1cc(OC(F)F)cc(C(F)(F)F)c1)c1ncoc1-c1ncccn1 (centres unmarked) [I-3, 3-(difluoromethoxy)-N-[1-(5-pyrimidin-2-yloxazol-4-yl)ethyl]-5-(trifluoromethyl)benzamide]
≥ 75%: mortality at 2500 ppm [2] | mortality at 2500 ppm [6] | mortality at 300 ppm [3] | mortality at 2500 ppm [5]

CCN(C(=O)c1cc(OC(F)F)cc(C(F)(F)F)c1)C(C)c1ncoc1-c1ncccn1 (centres unmarked) [I-5, 3-(difluoromethoxy)-N-ethyl-N-[1-(5-pyrimidin-2-yloxazol-4-yl)ethyl]-5-(trifluoromethyl)benzamide]
≥ 75%: mortality at 2500 ppm [6] | mortality at 2500 ppm [5]

Reference: patent EP4198033A1, “HETEROCYCLIC COMPOUNDS FOR THE CONTROL OF INVERTEBRATE PESTS” (priority 2021, dated 2023)
